Assay results: US20070191357A1, “METHODS OF USING POTASSIUM CHANNEL INHIBITING COMPOUNDS” (priority 2005, published 2007)

Molecular target: T1, human potassium Kv1.3 (Homo sapiens, UniProt P22001)
T1 construct: expressed in transfected cells; host or cells: stably transfected cells grown in serum-free medium for CHO cells (CHO inferred from the medium)
Test: Electrophysiological examination (whole-cell patch-clamp) of the Kv1.3-mediated potassium current in CHO cells
Assay type: cell-based
Conditions: 10 μM example compound 1, time course
Description: 1. Electrophysiological Examination of Test Compounds on the KV1.3-Mediated Potassium Current
cDNA coding for the human potassium Kv1.3 was cloned into a standard vector. A C-terminal epitope-tag was introduced via PCR. The plasmid was sequenced and subsequently introduced into cells and a clonal cell line was established. Expression of protein was analyzed by means of immunofluorescence using antibodies directed against the epitope-tag.
Experiments were performed in CHO cells stably expressing the potassium Kv1.3 potassium channel. […]
Patch-clamp experiments were performed in the voltage-clamp mode (Hamill et al., 1981) and whole-cell currents were recorded. Patch pipettes were pulled from borosilicate glass tubes. Current signals were amplified and digitized by an EPC patch-clamp amplifier (HEKA-Electronics, Lambrecht, Germany), stored and analyzed on a personal computer using the Pulse/Pulsefit software (HEKA, Lambrecht, Germany). Experiments were conducted at room temperature.
For investigating effects and reversibility of a test compound on the Kv1.3 potassium channel, CHO cells were clamped at a holding potential (HP) of −80 mV. The following stimulation protocol (scheme 1) was applied successively and the induced currents have been recorded: […]
The application protocol of the test compound is depicted in scheme 2. […] Nonspecific current reduction was calculated and serves for correction procedures during data analysis. […] Effect of the test compound was analyzed between stimulus nos. […]
The appropriate experiment was selected from the data tree in the Pulse software. […] The leak current amplitude during the prepulse to −90 mV and the peak current amplitude of the test-pulse to +40 mV were measured by placing the cursors on the oscilloscope screen (FIG. 3). […]
FIG. 1: Kv1.3-mediated potassium current. […] The two cursors on the right indicate the range of the test pulse, where the peak current amplitude was evaluated (205-230 ms of the test pulse to +40 mV). The two cursors on the left indicate the area where the mean leak current was evaluated (100-140 ms of the test pulse to −90 mV). […]

T1 sequence (P22001 whole entry): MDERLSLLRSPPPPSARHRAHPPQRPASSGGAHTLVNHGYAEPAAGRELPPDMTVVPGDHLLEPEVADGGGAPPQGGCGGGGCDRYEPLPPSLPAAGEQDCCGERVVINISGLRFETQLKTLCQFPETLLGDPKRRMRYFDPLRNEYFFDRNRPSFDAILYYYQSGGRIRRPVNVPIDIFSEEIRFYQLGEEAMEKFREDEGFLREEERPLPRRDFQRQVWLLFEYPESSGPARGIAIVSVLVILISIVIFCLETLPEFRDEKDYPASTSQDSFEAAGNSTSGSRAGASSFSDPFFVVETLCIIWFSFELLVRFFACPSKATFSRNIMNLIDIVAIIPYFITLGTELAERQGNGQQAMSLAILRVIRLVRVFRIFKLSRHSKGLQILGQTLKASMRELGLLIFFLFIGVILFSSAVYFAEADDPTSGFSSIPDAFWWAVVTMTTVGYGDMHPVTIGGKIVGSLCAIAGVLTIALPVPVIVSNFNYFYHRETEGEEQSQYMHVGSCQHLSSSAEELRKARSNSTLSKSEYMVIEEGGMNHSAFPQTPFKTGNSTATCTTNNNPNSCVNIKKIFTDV

For `CN=C(NS(=O)(=O)c1ccc(Cl)cc1)N1C[C@H](c2ccccc2)C(c2ccc(Cl)cc2)=N1` [example compound 1], the “Effect on current amplitude (in words)” value was “significant current reduction”.

Same assay, conditions: in the presence of 0.1% BSA; fit of equation (4)

In the case of `CN=C(NS(=O)(=O)c1ccc(Cl)cc1)N1C[C@H](c2ccccc2)C(c2ccc(Cl)cc2)=N1` [example compound 1], the “Hill coefficient nH” value is reported as 0.72±0.22.

Same assay, conditions: over the tested concentrations

With `CN=C(NS(=O)(=O)c1ccc(Cl)cc1)N1C[C@H](c2ccccc2)C(c2ccc(Cl)cc2)=N1` [example compound 1] the “Effect on outward Kv1.3-mediated current amplitudes (in words)” value was “reduced in a concentration-dependent manner”.

Molecular target: T1, human potassium Kv1.3
Test: Potassium Kv1.3 autopatch electrophysiology method, percentage charge inhibition
Assay type: cell-based
Conditions: concentration not given (compounds made up at 1 μM and 10 μM)
Description: 2. Electrophysiological Examination of Test Compounds on the Kv1.3-Mediated Potassium Current (Potassium Kv1.3 Autopatch Electrophysiology Method)
In another set of experiments, the inhibition of the potassium Kv1.3 channel has been measured.
Cells stably transfected with cDNA for human potassium Kv1.3 (in pcDNA3.1) were grown in Ex-cell 302 serum-free medium for CHO cells, supplemented with 10 μl/ml [100×] glutamine, 500 μg/ml G418, and 1% HT supplement (50×, hypoxanthine and thymidine). The cells were cultured in 350 ml spinner (Techne) spun at 80 rpm, at 37° C. in a water-saturated 5% CO2 incubator. The day of the preparation an aliquot of cells was 5 times diluted in fresh media and counted with a glass counting chamber type Malassez. Then six tubes of 10 ml were prepared at 6×10^6 c/ml. The tubes were then placed at 4° C. until their use.
The external bathing solution contained (in mM): 150 NaCl, 10 KCl, 1 MgCl2, 3 CaCl2 and 10 HEPES. The pH was adjusted to 7.4 with NaOH. Patch pipettes were filled with a pipette solution of composition (in mM): 100 K-Gluconate, 20 KCl, 1 MgCl2, 1 CaCl2, 10 HEPES, 11 EGTA, 5 ATP-Na2 and 2 Glutathione. The pH was adjusted to 7.2 with KOH. Using fresh 100 ml bathing solution, 0.05% BSA re-suspension solution (0.05 g BSA/100 ml bather) was prepared.
Compounds were dissolved in DMSO (100%) and made up in the external bather at concentrations of 1 μM and 10 μM. All experiments were conducted at room temperature.
Two tubes of cell suspension were centrifuged at 1000 rpm for 4 minutes at room temperature. 10 ml of supernatant was carefully aspirated and discarded from each tube, with care being taken not to aspirate the cell pellet sitting at the bottom of the tube. The cell pellet of each tube was broken-up by gentle manual agitation of the tube. 600 μl of re-suspension solution was added to the cell pellet, followed by a gentle trituration step to re-suspend the cells. Once re-suspended, 600 μl of solution per tube was removed from each tube, such that 1.2 ml of cell suspension was obtained in total and placed in a temperature-controlled cell hotel, set at either 4° C. or dew point. Cells were maintained in suspension in the hotel through gentle trituration every 30 s via an automatic cell suspension system.
Harvard borosilicate capillary glass (GC1507F-10, […], supplied in 100 mm lengths) was cut down to 24 mm lengths using a Dagen capillary cutter. Short (13 mm) patch pipettes were pulled using a 2-stage pull on a specially adapted DMZ pipette puller (Zeitz Instruments). Patch pipettes typically have resistances of 2.3-3.5 MΩ. As the patch pipettes were pulled in batches, pipette tip resistance was measured every tenth pipette using a Tenma meter in order to maintain consistency of tip resistance. Pulled pipettes were stored in Petri dish before filling.
Each pipette was fully back-filled (from the tip to the end) using the internal pipette solution and the pipette tip was dipped in Sigmacote (Sigma). The pipette was then precisely inserted, tip first, into a pipette holder using a custom-made, pneumatic insertion rig, with the blunt end of the patch pipette sitting proud of the bottom of the pipette holder.
Whole cell patch-clamp recordings (WCRs) were made using the AP2, which incorporates an EPC9 or EPC10 amplifier (HEKA, Germany) under control of Pulse software (v8.54 or v8.76, HEKA, Germany), the patch plate contact fixture, a Gilson autosampler for cell delivery (the cell sampler), a Gilson autosampler for drug preparation (the auto-sampler), the drug application system (DAS), a feedback-controlled suction device for enabling high resistance GΩ seals to be formed for the whole cell recording mode to be attained, a cell re-suspension system, a temperature-controlled cell hotel, a vacuum line and associated pumps for applying suction and for draining the patch plate wells of bather.
Under control of the AP2 software, automated patch-clamping was initiated. […]

First: CNC(=NS(=O)(=O)c1ccc(Cl)cc1)N1CC(c2cccnc2)C(c2ccc(Cl)cc2)=N1 (stereo not shown)
Second: CON/C(=N\S(=O)(=O)c1ccc(Cl)cc1)N1C[C@H](c2cccc(F)c2)C(c2ccc(Cl)cc2)=N1
The “Inhibition of the Potassium Kv1.3 channel (%)” value (shortened to “Inhibition … (%)”) of the first is higher: 88.7% for the first, 76.0% for the second.

First: CNC(=NS(=O)(=O)N(C)C)N1CC(c2cccc(F)c2)C(c2ccc(Cl)cc2)=N1 (stereo not shown)
Second: CNC(=NS(=O)(=O)N1CCC(O)CC1)N1CC(c2ccccc2)C(c2ccc(Cl)cc2)=N1 (stereo not shown)
The “Inhibition … (%)” value of the first is lower: 88.1% for the first, 92.8% for the second.

First: CN(C)CCNC(=NS(=O)(=O)N1CCCCC1)N1CC(c2ccccc2)C(c2ccc(Cl)cc2)=N1 (stereo not shown)
Second: O=S(=O)(N=C(NCCF)N1CC(c2ccccc2)C(c2ccc(Cl)cc2)=N1)c1ccc(Cl)cc1 (stereo not shown)
The “Inhibition … (%)” value of the first is lower: 58.4% for the first, 77.1% for the second.

Going from `CN1CCC(CNC(=NS(=O)(=O)c2ccc(Cl)cc2)N2CC(c3ccccc3)C(c3ccc(Cl)cc3)=N2)C1` (stereo not shown) to `CN[C@@H](Cc1c[nH]c2ccccc12)C(=O)N1CC(c2ccccc2)C(c2ccc(Cl)cc2)=N1` (stereo partly shown), the “Inhibition … (%)” value falls from 96.2% to 87.8%.

Going from `CCN(CC)C(=O)c1cn(-c2ccc(Cl)cc2)c(-c2ccc(Cl)cc2Cl)n1` to `Cc1c(C(=O)NN2CCCCC2)nn(-c2ccc(Cl)cc2Cl)c1-c1ccc(Cl)cc1` [Rimonabant, reference compound], the “Inhibition … (%)” value rises from 76.2% to 89.2%.

Going from `CC1=Nc2ccc(Cl)cc2S(=O)(=O)N1` [Diazoxide, reference compound] to `CC1(NC2=NS(=O)(=O)c3sc(Cl)cc3N2)CC1` [NN414, reference compound], the “Inhibition … (%)” value falls from 46.5% to 45.1%.

Going from `CCCCCCC(C)(C)c1cc(OC)c([C@H]2C=C(CO)[C@H]3C[C@@H]2C3(C)C)c(OC)c1` [HU-308, reference compound] to `Cc1c(C(=O)c2cccc3ccccc23)c2cccc3c2n1[C@H](CN1CCOCC1)CO3` [R(+)-WIN55212-2, reference compound], the “Inhibition … (%)” value rises from 81.2% to 81.5%.

For `CCc1c(C(=O)NN2CCCCC2)nn(-c2ccc(Cl)cc2Cl)c1-c1ccc(Br)cc1` [SR-147778, reference compound], the “Inhibition … (%)” value was 63.7%.

System: not listed separately
Test: Solubility as noted during the Kv1.3 patch-clamp experiments
Conditions: bath solution; 0.1% BSA used to overcome it

In the case of `CN=C(NS(=O)(=O)c1ccc(Cl)cc1)N1C[C@H](c2ccccc2)C(c2ccc(Cl)cc2)=N1` [example compound 1], the “Solubility (in words)” value is reported as “low solubility”.
